In patent publication US20030232790A1, “Dihydro-2h-napthalene-1-one inhibitors of ras farnesyl transferase” (priority 2002, published 2003):
Read-outs that look alike come from different tables or passages of the source.

Columns and labels:
[1] = molecular target: T1, protein:farnesyl transferase (PFT), SF9 affinity purified rat FPT (Rattus norvegicus, UniProt Q02293+Q04631); experiment: PFT (FPT) inhibitory activity, radiolabeled farnesyl pyrophosphate / biotinyl peptide streptavidin bead assay; assay type: biochemical
T1 construct: made in house
Method: The pharmaceutical utility of compounds of this invention was established by the following standard assay which measures inhibition of the enzyme protein:farnesyl transferase (PFT), also referred to as farnesyl protein transferase (FPT).
The PFT (or FPT) inhibitory activity of compounds of the present invention was assayed in HEPES buffer (pH 7.4) containing 5 mM potassium phosphate and 20 μM ZnCl2. The solution also contained 5 mM DTT (dithiothreitol), 5 mM MgCl2, and 0.1% PEG 8000. Assays were performed in 96 well plates (Wallec) and employed solutions composed of varying concentrations of a compound of the present invention in 10% DMSO (dimethylsulfoxide). Upon addition of both substrates, radiolabeled farnesyl pyrophosphate ([1^3H], specific activity 15-30 Ci/mmol, final concentration 134 nM) and (biotinyl)-Ahe-Thr-Lys-Cys-Val-Ile-Met ([3aS[3a alpha, 4 beta, 6a alpha]-hexahydro-2-oxo-1H-thieno[3,4-d]imidazole-5-pentanoic acid]-[7-aminoheptanoic acid]-Thr-Lys-Cys-Val-Ile-Met) (Ahe is 7-aminoheptanoic acid, Thr is threonine, Lys is lysine, Cys is cysteine, Val is valine, Ile is isoleucine, and Met is methionine) (final concentration 0.2 μM), the enzyme reaction was started by addition of SF9 affinity purified rat FPT. After incubation at 30° C. for 30 minutes, the reaction was terminated by diluting the mixture 2.5-fold with a stop buffer containing 1.5 M magnesium acetate, 0.2 M H3PO4, 0.5% BSA (bovine serum albumin), and strepavidin beads (Amersham) at a concentration of 1.3 mg/mL. After allowing the plate to settle for 30 minutes at room temperature, radioactivity was quantitated on a microBeta counter (Model 1450, Wallec). The assay was also carried out without 5 mM potassium phosphate.

[2] = tested on: EJ-1 human bladder carcinoma, HT18O human fibrosarcoma, and human colon carcinoma xenografts; details: 100 mg/kg; xenografts in nude mice; cited from earlier work
[3] = tested on: human lung carcinoma with K-ras mutation and p53 deletion; details: nude mice; cited from earlier work
[4] = tested on: mammary and salivary carcinomas; details: daily administration; ras transgenic mice; cited from earlier work
[5] = HEPES buffer pH 7.4 with 5 mM potassium phosphate, read-out: IC50 (μm) Hepes ± 5 mM Phosphate
[6] = HEPES buffer pH 7.4 without 5 mM potassium phosphate, read-out: IC50 (μm) Hepes

Row | SMILES | IC50 [1, 5] [nM] | IC50 [1, 6] [nM] | further results
1 | CCCc1c(OCCc2cncn2Cc2ccccc2)ccc2c1CCCC2=O [Compound 2, 6-[2-(3-benzyl-3H-imidazol-4-yl)-ethoxy]-5-propyl-3,4-dihydro-2H-naphthalen-1-one] | 870 | 1390 | –
2 | O=C1CCCc2c1ccc(OCCc1cncn1Cc1ccccc1)c2CCc1ccccc1 [Compound 3, 6-[2-(3-benzyl-3H-imidazol-4-yl)-ethoxy]-5-phenethyl-3,4-dihydro-2H-naphthalen-1-one] | 52 | 73 | –
3 | N#Cc1ccc(Cn2cncc2CCOc2ccc3c(c2CCc2ccccc2)CCCC3=O)cc1 [Compound 4, 4-{[5-(2-{[5-oxo-1-(2-phenylethyl)-5,6,7,8-tetrahydro-2-naphthalenyl]oxy}ethyl)-1H-imidazol-1-yl]methyl}benzonitrile] | – | 0.3 | –
4 | COc1ccc(Cn2cncc2CCOc2ccc3c(c2)CCCC3=O)cc1C [Compound 12, 6-{2-[3-(4-methoxy-3-methyl-benzyl)-3H-imidazol-4-yl]-ethoxy}-3,4-dihydro-2H-naphthalen-1-one] | 22 | 24 | –
5 | N#Cc1ccc(Cn2cncc2CCOc2ccc3c(c2CS(=O)(=O)c2ccccn2)CCCC3=O)cc1 [Compound 28, 4-({5-[2-({5-oxo-1-[(2-pyridinylsulfonyl)methyl]-5,6,7,8-tetrahydro-2-naphthalenyl}oxy)ethyl]-1H-imidazol-1-yl}methyl)benzonitrile] | – | 0.3 | –
6 | CC(C)S(=O)(=O)Cc1c(OCCc2cncn2Cc2ccc(C#N)cc2)ccc2c1CCCC2=O [Compound 29, 4-({5-[2-({1-[(isopropylsulfonyl)methyl]-5-oxo-5,6,7,8-tetrahydro-2-naphthalenyl}oxy)ethyl]-1H-imidazol-1-yl}methyl)benzonitrile] | – | 0.5 | –
7 | COC(=O)[C@H](CCSC)NC(=O)[C@H](/C=C\[C@@H](/C=C/[C@@H](N)CS)C(C)C)Cc1ccccc1 [Compound B1086] | – | – | tumor growth inhibition [2]: inhibit tumor growth
8 | CSCC[C@H](NC(=O)c1ccc(NC[C@@H](N)CS)cc1-c1ccccc1)C(=O)O [FTI276] | – | – | tumor growth [3]: selectively block tumor growth
9 | CC[C@H](C)[C@@H](CO[C@@H](Cc1ccccc1)C(=O)N[C@@H](CCS(C)(=O)=O)C(=O)OC(C)C)NC[C@@H](N)CS [L-744,832] | – | – | tumor regression [4]: caused tumor regression
